Measured values from the NIST ThermoML archive (doi:10.1016/j.jct.2012.01.002).
Where “and” joins values, the source holds several entries; their conditions need not be identical. Identical values can stand only once.

Key:
[1] = 101.33 kPa, Liquid, Vibrating tube method
[2] = xn = mol fraction of the nth substance listed; conditions: 101 kPa, Liquid, Vibrating tube method

CCCCCCCC[N+](C)(CCCCCCCC)CCCCCCCC.O=S(=O)([N-]S(=O)(=O)C(F)(F)F)C(F)(F)F
[1]
Conditions	mass density [kg/m3]
298.15 K	1106.9
303.15 K	1103.2
313.15 K	1095.7

CCCCCCCC[N+](C)(CCCCCCCC)CCCCCCCC.O=S(=O)([N-]S(=O)(=O)C(F)(F)F)C(F)(F)F + CC(C)O
mass density [kg/m3], [2]
Conditions	x1 = 0.053	x1 = 0.1	x1 = 0.2045	x1 = 0.2841	x1 = 0.3934	x1 = 0.4824	x1 = 0.5896	x1 = 0.7066	x1 = 0.7967	x1 = 0.896
298.15 K	876.9	932.6	1004.9	1033.8	1056.2	1067.6	1078.9	1089	1095.2	1100.5
303.15 K	873	928.9	1001.5	1030.3	1052.6	1063.9	1075.2	1085.4	1091.6	1096.9
313.15 K	865.1	921.3	994.7	1023.3	1045.1	1056.6	1068.1	1078.3	1084.4	1089.5

CCCCCCCC[N+](C)(CCCCCCCC)CCCCCCCC.O=S(=O)([N-]S(=O)(=O)C(F)(F)F)C(F)(F)F + CCC(C)O
mass density [kg/m3], [2]
Conditions	x1 = 0.0654	x1 = 0.1397	x1 = 0.2623	x1 = 0.3282	x1 = 0.4054	x1 = 0.5045	x1 = 0.6051	x1 = 0.7046	x1 = 0.808	x1 = 0.9067
298.15 K	894.2	956.2	1013.8	1033.4	1050.6	1066.7	1078.5	1087.3	1094.6	1100.8
303.15 K	890.3	952.7	1010.2	1029.7	1046.9	1063	1074.8	1083.7	1091	1097.2
313.15 K	882.6	945.3	1003.1	1022.5	1039.7	1055.7	1067.6	1076.5	1083.9	1090

CCCCCCCC[N+](C)(CCCCCCCC)CCCCCCCC.O=S(=O)([N-]S(=O)(=O)C(F)(F)F)C(F)(F)F + CCCCO
mass density [kg/m3], [2]
Conditions	x1 = 0.0654	x1 = 0.1421	x1 = 0.2623	x1 = 0.3284	x1 = 0.4437	x1 = 0.5343	x1 = 0.6385	x1 = 0.7397	x1 = 0.8432	x1 = 0.9195
298.15 K	898.1	962	1018	1037.3	1060.4	1072.8	1083.4	1091	1097.9	1102.1
303.15 K	894.3	958.6	1014.6	1033.9	1056.8	1069.1	1079.8	1087.4	1094.2	1098.6
313.15 K	887.2	951.8	1007.6	1026.9	1049.7	1062.1	1072.7	1080.5	1087.2	1091.6

CCCCCCCC[N+](C)(CCCCCCCC)CCCCCCCC.O=S(=O)([N-]S(=O)(=O)C(F)(F)F)C(F)(F)F + CCOC(C)=O
mass density, [2]
Conditions	x1 = 0.1167	x1 = 0.2291	x1 = 0.4417	x1 = 0.5433	x1 = 0.7037	x1 = 0.7993	x1 = 0.9209
298.15 K	848.1 kg/m3 and 989.9 kg/m3	1034.5 kg/m3	1074.7 kg/m3	1085.4 kg/m3	1096.7 kg/m3	1101.3 kg/m3	1105.4 kg/m3
303.15 K	984.9 kg/m3	1029.5 kg/m3	1069.6 kg/m3	1080.3 kg/m3	1091.5 kg/m3	1096.2 kg/m3	1100.5 kg/m3
313.15 K	974.9 kg/m3	1020.9 kg/m3	1062.5 kg/m3	1073.4 kg/m3	1085 kg/m3	1089.6 kg/m3	1062.5 kg/m3 and 1094.1 kg/m3

CCC(C)O (centres undefined) [butan-2-ol] + CCOC(C)=O
mass density [kg/m3], [2]
Conditions	298.15 K	303.15 K	313.15 K
x1 = 0.0603	888.5	882.5	870.2
x1 = 0.1109	883.2	877.6	865.6
x1 = 0.1511	878.9	873.2	861.4
x1 = 0.1998	873.8	868.6	857.1
x1 = 0.2502	868.8	863.5	852.5
x1 = 0.302	863.6	858.4	847.5
x1 = 0.3489	858.9	853.9	843.2
x1 = 0.3988	854.1	849.2	838.7
x1 = 0.4506	849.4	844.4	834.3
x1 = 0.5011	844.6	839.9	829.9
x1 = 0.5631	839	834.3	824.5
x1 = 0.601	835.6	830.9	821.2
x1 = 0.6501	831.1	826.8	817.3
x1 = 0.7032	826.5	822.4	812.9
x1 = 0.752	822.5	818.3	808.9
x1 = 0.8012	818.4	814	805.1
x1 = 0.8498	814.6	810.1	801.4
x1 = 0.9028	810.3	805.8	797.4
x1 = 0.9519	806.7	802.4	794.4

CCOC(C)=O [ethyl acetate] + CCCCO
mass density [kg/m3], [2]
Conditions	298.15 K	303.15 K	313.15 K
x2 = 0.0904	886.5	880.4	869.6
x2 = 0.1337	882.3	876.8	866
x2 = 0.2525	871.5	866.7	856.6
x2 = 0.3723	860.7	856.6	846.8
x2 = 0.4807	851	847.5	838
x2 = 0.5955	840.9	838	828.8
x2 = 0.7032	831.5	828.8	820.1
x2 = 0.8009	823	820.6	812.3
x2 = 0.8916	815.1	813	805
x2 = 0.9641	808.6	806.7	799.4
x2 = 0.9795	807.3	805.3	798.1
